From BindingDB's records for doi:10.7270/Q2F47MKR (Burnham Center For Chemical Genomics, 2010)

Test: GPR35 antagonists, SAR follow-up, imaging, image-based, set 2 (AID 2480)
Conditions: not given

Row | Structure (SMILES) | IC50 [nM]
1 | Cc1ccc(/C=C2\SC(=S)N(CCCC(=O)Nc3ccc(O)cc3)C2=O)cc1 [MLS000777252] | 1420
2 | Cc1c(C(=O)Nc2ccc3c(c2)OCCO3)sc2ncnc(N3CCC(C)CC3)c12 [N-(2,3-dihydro-1,4-benzodioxin-6-yl)-5-methyl-4-(4-methyl-1-piperidinyl)-6-thieno[2,3-d]pyrimidinecarboxamide] | 4070
3 | CC(/C=C1\SC(=S)N(CCCC(=O)Nc2ccc(C(=O)O)cc2)C1=O)=C\c1ccccc1 [4-[4-[(5Z)-5-[(E)-2-methyl-3-phenyl-prop-2-enylidene]-4-oxidanylidene-2-sulfanylidene-1,3-thiazolidin-3-yl]butanoylamino]benzoic acid] | 105
4 | Cc1ccc(C)c(OCCC(=O)NCCc2ccc(S(N)(=O)=O)cc2)c1 | > 32000
5 | O=C(Nc1ccc2nc(SCc3ccccc3)sc2c1)c1ccccc1C(=O)N1CCOCC1 [2-[4-morpholinyl(oxo)methyl]-N-[2-(phenylmethylthio)-1,3-benzothiazol-6-yl]benzamide] | 1610
6 | Clc1ccc(Cn2ncc3c(N4CCN(c5ccccc5)CC4)ncnc32)cc1 | 7170
7 | CCOC(=O)c1ccc(NC(=O)CCCN2C(=O)/C(=C/c3ccccc3)SC2=S)cc1 [ethyl 4-[4-[(5Z)-5-benzylidene-4-oxo-2-sulfanylidene-1,3-thiazolidin-3-yl]butanoylamino]benzoate] | 8630
8 | COc1cccc(/C=C2\SC(=S)N(CCCC(=O)Nc3ccc(C(=O)O)cc3)C2=O)c1 [4-[4-[(5Z)-5-[(3-methoxyphenyl)methylidene]-4-oxo-2-sulfanylidene-1,3-thiazolidin-3-yl]butanoylamino]benzoic acid] | 651
9 | COc1ccc(/C=C2\SC(=S)N(CCCC(=O)Nc3ccc(C(=O)O)c(O)c3)C2=O)cc1OC [4-[4-[(5Z)-5-[(3,4-dimethoxyphenyl)methylidene]-4-oxo-2-sulfanylidene-1,3-thiazolidin-3-yl]butanoylamino]-2-hydroxybenzoic acid] | 151
10 | CCc1ccc(NC(=O)CSc2nc3ccsc3c(=O)n2Cc2ccc(OC)cc2)cc1 [N-(4-ethylphenyl)-2-[[3-[(4-methoxyphenyl)methyl]-4-oxo-2-thieno[3,2-d]pyrimidinyl]thio]acetamide] | > 32000
11 | Cc1ccc(/C=C2\SC(=S)N(CCCC(=O)Nc3cccc(C(=O)O)c3)C2=O)cc1 [MLS001034563] | 240
12 | COc1ccc(/C=C2\SC(=S)N(CCCC(=O)Nc3cccc(C(=O)O)c3)C2=O)cc1OC [3-[4-[(5Z)-5-[(3,4-dimethoxyphenyl)methylidene]-4-oxidanylidene-2-sulfanylidene-1,3-thiazolidin-3-yl]butanoylamino]benzoic acid] | 607
13 | Cc1ccccc1N1CCN(c2ncnc3c2cnn3Cc2ccc(Cl)cc2)CC1 [1-[(4-chlorophenyl)methyl]-4-[4-(2-methylphenyl)-1-piperazinyl]pyrazolo[3,4-d]pyrimidine] | 2220
14 | COc1ccc(/C=C2/SC(=S)N(CCCC(=O)Nc3ccc(O)cc3)C2=O)cc1 [N-(4-hydroxyphenyl)-4-[(5E)-5-[(4-methoxyphenyl)methylidene]-4-oxidanylidene-2-sulfanylidene-1,3-thiazolidin-3-yl]butanamide] | 1070
15 | Cc1ccc(OCCC(=O)NCCc2ccc(S(N)(=O)=O)cc2)cc1 [MLS-0213737.0001] | > 32000
16 | Cc1c(C(=O)Nc2ccc3c(c2)OCCO3)sc2ncnc(O)c12 [N-(2,3-dihydro-1,4-benzodioxin-6-yl)-5-methyl-4-oxo-3H-thieno[2,3-d]pyrimidine-6-carboxamide] | > 32000

Row | Structure (SMILES) | IC50 [nM]
17 | COc1ccc(-c2nnc(-c3cccnc3)o2)cc1 [2-(4-methoxyphenyl)-5-pyridin-3-yl-1,3,4-oxadiazole] | > 32000
18 | O=C(Nc1ccc2nc(SCc3ccc(Cl)c(Cl)c3)sc2c1)c1ccccc1Br | > 32000
19 | CC(C)COc1ccc(-c2nnc(-c3ccc(Cl)nc3)o2)cc1 [MLS-0435441.0001] | > 32000
20 | COC(=O)CSc1nc2ccc(NC(=O)c3ccccc3C(=O)N3CCOCC3)cc2s1 [methyl 2-[[6-[(2-morpholin-4-ylcarbonylphenyl)carbonylamino]-1,3-benzothiazol-2-yl]sulfanyl]ethanoate] | > 32000
21 | Cc1ccccc1OCCC(=O)NCCc1ccc(S(N)(=O)=O)cc1 [MLS-0213188.0001] | > 32000
22 | CCOC(=O)c1ccc(NC(=O)CCCN2C(=O)/C(=C/c3ccc(C)cc3)SC2=S)cc1 [MLS-0435416.0001] | 2600
23 | O=C(CCCN1C(=O)/C(=C\c2ccccc2)SC1=S)Nc1ccc(C(=O)O)cc1 [4-[[1-oxo-4-[(5E)-4-oxo-5-(phenylmethylene)-2-sulfanylidene-3-thiazolidinyl]butyl]amino]benzoic acid] | 1680
24 | CC(C)(C)c1ccc(OCCC(=O)NCCc2ccc(S(N)(=O)=O)cc2)cc1 [MLS001151090] | 2230
25 | Cc1nc(N2CCC(C)CC2)c2c(C)c(C(=O)Nc3ccc(C)c(F)c3)sc2n1 [MLS-0244945.0001] | 6100
26 | O=C(CCCN1C(=O)/C(=C\c2ccccc2)SC1=S)Nc1cccc(C(=O)O)c1 [3-[4-(5-Benzylidene-4-oxo-2-thioxo-thiazolidin-3-yl)-butyrylamino]-benzoic acid] | 1600
27 | CCc1ccc(/C=C2\SC(=S)N(CCCC(=O)Nc3ccc(C(=O)O)cc3)C2=O)cc1 [SMR000646238] | 71.8
28 | O=C(Nc1ccc2nc(SCc3ccc(Cl)cc3)sc2c1)c1ccccc1C(=O)N1CCOCC1 | 554
29 | O=C(CCCN1C(=O)/C(=C/c2ccccc2)SC1=S)Nc1ccc(C(=O)O)c(O)c1 [4-[4-[(5Z)-5-benzylidene-4-oxo-2-sulfanylidene-1,3-thiazolidin-3-yl]butanoylamino]-2-hydroxybenzoic acid] | 295
30 | Cc1ccc(Cn2ncc3c(N4CCN(c5ccccc5C)CC4)ncnc32)cc1 [1-(4-methylbenzyl)-4-[4-(2-methylphenyl)-1-piperazinyl]-1H-pyrazolo[3,4-d]pyrimidine] | 2650
31 | Cc1ccc2[nH]c(C)c(/C=C/c3cc[n+](C)cc3)c2c1 | 2360

Same assay, conditions: inactive by the depositor's call

Row | Structure (SMILES) | IC50 [nM]
32 | CCOc1ccc(NC(=O)CSc2nc3ccsc3c(=O)n2Cc2ccc(C(=O)O)cc2)cc1 | 12500
33 | c1ccc(Cn2ncc3c(N4CCN(c5ccccc5)CC4)ncnc32)cc1 [1-(phenylmethyl)-4-(4-phenylpiperazin-1-yl)pyrazolo[3,4-d]pyrimidine] | 17000
34 | Cc1nc(N2CCC(C)CC2)c2c(C)c(C(=O)Nc3ccccc3C(F)(F)F)sc2n1 [SMR000312025] | 10200
35 | O=C(CCCN1C(=O)/C(=C\c2cccs2)SC1=S)Nc1ccc(O)cc1 [N-(4-hydroxyphenyl)-4-[(5E)-4-oxo-2-sulfanylidene-5-(thiophen-2-ylmethylidene)-1,3-thiazolidin-3-yl]butanamide] | 11000
